This is an account of results in the supplement of paper PMC5844555.

What all share (experiment): 3' UTR reporter interaction score (median-centred robust z-score of log2 firefly/Renilla activity); higher = less repression of the 3' UTR reporter
Common to all, as to details: HEK293T; 48 h

The test system of data set [1] is NOTCH1. The procedure, abridged: (§1)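 The interaction score is based on the log-transformed firefly/Renilla luciferase ratio, scaled as a robust z-score within each plate by median and median absolute deviation and median-centred for each miRNA; more negative scores indicate interaction. It was averaged over at least two independent screens. Readings were taken 48 h after HEK293T cells (10,000/well, 96-well plates) were co-transfected by DharmaFECT Duo with 100 ng firefly luc2P 3' UTR reporter, 20 ng Renilla pRL-TK and 2.5 pmol miRNA mimic.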

Data set [2] relates to BRCA2. The procedure, abridged: as §1
Data set [3] deals with ZEB2. The procedure, abridged: as §1
The subject of data set [4] is FBXW7. The procedure, abridged:
as §1

In data set [5] the test system is EZH2. The procedure, abridged: as §1
Data set [6] deals with TP53. The procedure, abridged:
as §1

Data set [7] relates to PHF6. The procedure, abridged: as §1
Data set [8] deals with PHOX2B. The procedure, abridged:
as §1

For data set [9], the system named is HRAS. The procedure, abridged:
as §1

Data set [10] deals with MYCN. The procedure, abridged:
as §1

For data set [11], the system named is MYC. The procedure, abridged:
as §1

Data set [12] deals with MYT1L. The procedure, abridged: as §1
In data set [13] the test system is RB1. The procedure, abridged:
as §1

Data set [14] has as its system MYB. The procedure, abridged: as §1

For the sequence AAACUCUACUUGUCCUUCUGAGU, the “3' UTR reporter interaction score” value in [1] was 0.753; in data set [2], 1.32; in data set [3], -1.55; in [4], 2.09; in data set [5], -0.108; in data set [6], 0.757. For the same sequence, the “3' UTR reporter interaction score” value in [7] is -0.863; in [8], 0.571; in [9], 0.16; in data set [10], -0.333; in data set [11] it was -0.658; in [12], -0.888. Moreover, the figures for the “3' UTR reporter interaction score” value in [13] and in data set [14] were 0.409 and 0.312, respectively.

For the sequence AAAGACAUAGGAUAGAGUCACCUC, the “3' UTR reporter interaction score” value in data set [1] was -1.33; in data set [2], -0.417; in [3] it was 0.2; in [4], 1.01; in [5], -0.299; in data set [6], 0.557. For the same sequence, the “3' UTR reporter interaction score” value was -0.548 in data set [7]; 0.476 in [8]; -0.101 in data set [9]; -0.0475 in data set [10]; -0.142 in data set [11]; -1.82 in data set [12]. The “3' UTR reporter interaction score” value in data set [13] was -0.442; in [14], 0.438.

As for AAAGCGCUUCCCUUCAGAGUGU, the “3' UTR reporter interaction score” value is 0.385 in [1]; -0.304 in data set [2]; -0.49 in [3]; 1.07 in data set [4]; -0.357 in data set [5]; 0.336 in [6]. Besides, the “3' UTR reporter interaction score” value is 0.134 in data set [7]; 1.41 in [8]; -0.152 in [9]; -0.904 in [10]; -0.758 in data set [11]; -0.332 in [12]. The “3' UTR reporter interaction score” value was -1.21 in data set [13] and 0.692 in [14].

As to AAAGCGCUUCCCUUUGCUGGA, the “3' UTR reporter interaction score” value in data set [1] is 0.538; in data set [2] it was -0.221; in data set [3], 0.684; in data set [4], 0.199; in data set [5] it was 0.396; in [6], -1.12. Moreover, the “3' UTR reporter interaction score” value was 0.797 in data set [7]; 0.212 in data set [8]; -0.256 in data set [9]; -0.601 in data set [10]; -0.245 in [11]; 0.0314 in [12]. For the same sequence, the figures for the “3' UTR reporter interaction score” value in data set [13] and in data set [14] were -0.977 and -0.491, respectively.

Regarding AAAGCGCUUCUCUUUAGAGGA, the “3' UTR reporter interaction score” value was 0.581 in data set [1]; -0.521 in data set [2]; 0.196 in data set [3]; 0.112 in [4]; -0.591 in data set [5]; -0.0242 in data set [6]. Besides, the “3' UTR reporter interaction score” value in data set [7] was -0.164; in data set [8], 0.331; in data set [9], 0.681; in data set [10], -0.629; in data set [11] it was -0.0856; in data set [12], -0.414. In addition, the “3' UTR reporter interaction score” value in data set [13] was -0.785; in data set [14] it was -0.0819.

Turning to AAAGUAGCUGUACCAUUUGC, the “3' UTR reporter interaction score” value is 1.58 in [1]; 0.0379 in [2]; 1.39 in data set [3]; 0.57 in [4]; -0.677 in [5]; 0.1 in data set [6]. Further, the “3' UTR reporter interaction score” value in data set [7] is -0.00285; in [8] it was -0.926; in data set [9] it was -1.6; in data set [10], 0.676; in data set [11] it was -0.314; in data set [12], 0.719. For the same sequence, the entries for the “3' UTR reporter interaction score” value in data set [13] and in data set [14] were -0.735 and 1.14, respectively.

For AAAGUGCAUCCUUUUAGAGGUUU, the “3' UTR reporter interaction score” value in data set [1] is 1.67; in data set [2], -0.233; in data set [3], 0.526; in [4], 0.961; in data set [5] it was -0.589; in [6], 0.429. In addition, the “3' UTR reporter interaction score” value in data set [7] was -0.0516; in data set [8], 0.434; in data set [9], -0.233; in data set [10], 0.904; in data set [11] it was -0.372; in data set [12] it was -1.16. In addition, the results for the “3' UTR reporter interaction score” value in data set [13] and in [14] were -0.148 and -1.97, respectively.

As to AAAGUGCAUCCUUUUAGAGUGUUAC, the “3' UTR reporter interaction score” value in data set [1] was 2.14; in [2] it was -0.464; in data set [3], 0.599; in data set [4], 0.956; in [5], -0.596; in [6] it was 1.22. Also, the “3' UTR reporter interaction score” value in data set [7] was -0.315; in data set [8] it was -0.251; in [9] it was 0.648; in [10] it was 1.43; in [11], 0.046; in data set [12], -1.2. Further, the “3' UTR reporter interaction score” value in data set [13] was 0.0975; in [14], -1.8.

Regarding AAAGUGCAUCUUUUUAGAGGAU, the “3' UTR reporter interaction score” value in data set [1] is 0.996; in data set [2], -0.243; in [3], -0.325; in data set [4], 0.857; in [5], -0.581; in data set [6], 1.24. For the same sequence, the “3' UTR reporter interaction score” value in [7] is -0.0249; in [8], 0.606; in [9], 0.493; in data set [10] it was 1.77; in data set [11] it was 0.685; in data set [12] it was -0.436. For the same sequence, the “3' UTR reporter interaction score” value in data set [13] was -0.176; in data set [14], -2.04.
